Experimental data from US8993594B2, “Isoquinolin-1(2H)-one derivatives as PARP-1 inhibitors” (Nerviano Medical Sciences S.R.L., priority 2009, dated 2015).
Where a name gives a salt, the structure may show the parent alone. Read-outs that look alike come from different tables or passages of the source.

Experiments:
PARP-1 FL = PARP-1 FL (Homo sapiens, UniProt P09874); assay: Fluorescence polarization probe displacement assay; type: binding; details: for DC50: half maximal displacement concentration
Protocol: (§1) Affinity of the tested compounds and their selectivity with respect to the different PARP isoforms of interest was quantified in a displacement assay.
(§2) In all of the experiments, the polarization signal was measured using a Saphire2 plate reader (Tecan). Data analysis was performed using Dynafit software. In particular, titration data were fitted to the following equilibria: Enzyme+probe <==> Complex Enzyme-probe, while displacement data were fitted to the following equilibria: Enzyme+probe <==> Complex Enzyme-probe, Enzyme+Compound <==> Complex Enzyme-Compound, whereby binding of probe and compound on the enzyme are mutually exclusive (pure competitive mechanism). Displacement data were also fitted using Excel spreadsheet (Microsoft Inc. Seattle, USA) to a four parameter logistic model (4PL), or Hill-Slope model to calculate DC50s where the DC50 value represents the compound concentration at which the polarization signal is diminished by 50% compared to untreated controls.
(§3) In agreement, affinity binding constants (KD) were determined by fitting with a pure competitive mechanism. KD values are the average of three independent experiments.

PARP-2 FL = PARP-2 FL (Homo sapiens, UniProt Q9UGN5); assay: Fluorescence polarization probe displacement assay; type: binding; details: for DC50: compound P1 as the probe
Protocol: as §1, §2, §3

PARP-3 FL = target: T1, PARP-3 FL (Homo sapiens, UniProt Q9Y6F1); assay: Fluorescence polarization probe displacement assay; type: binding; details: compound P1 as the probe
T1 sequence (Q9Y6F1 1-533): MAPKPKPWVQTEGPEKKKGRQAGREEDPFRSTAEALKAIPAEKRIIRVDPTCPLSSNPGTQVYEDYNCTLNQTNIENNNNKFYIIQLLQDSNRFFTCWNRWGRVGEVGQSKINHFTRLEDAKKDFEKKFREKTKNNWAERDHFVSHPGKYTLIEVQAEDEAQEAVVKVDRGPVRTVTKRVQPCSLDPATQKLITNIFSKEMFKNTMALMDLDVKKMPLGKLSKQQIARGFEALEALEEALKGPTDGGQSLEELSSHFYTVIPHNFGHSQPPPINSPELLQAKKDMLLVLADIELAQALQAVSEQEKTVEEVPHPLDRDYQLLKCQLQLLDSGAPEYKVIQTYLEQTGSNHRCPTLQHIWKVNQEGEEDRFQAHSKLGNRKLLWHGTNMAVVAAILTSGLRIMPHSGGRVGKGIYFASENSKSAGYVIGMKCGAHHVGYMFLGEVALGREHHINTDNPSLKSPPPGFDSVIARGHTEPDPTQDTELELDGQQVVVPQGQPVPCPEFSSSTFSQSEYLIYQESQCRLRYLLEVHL
Protocol: as §1, §2, §3

[1] = tested on: hydrogen peroxide induced PAR formation in HeLa cells; assay: Cellular PAR assay (inhibition of hydrogen peroxide induced PAR formation); type: cell-based; details: Homo sapiens, 0.1 mM hydrogen peroxide 15 min
Protocol: Compounds potencies were evaluated by measuring the inhibition of poly (ADP-ribose) (PAR) chains formation as a marker for PARP-1 inhibition.
Cellular activity of PARP-1 inhibitors was assessed by measuring the inhibition of the hydrogen peroxide induced PAR formation in HeLa cells (ECACC). Cellular PAR levels were measured by immunocytochemistry and quantified using an ArrayScan vTi instrument (Cellomics Thermo Scientific).
Studies were performed as follows: 6000 cells/well were seeded in 96 well plates (Perkin Elmer) in MEM/10% FCS and incubated for 24 hours at 37° C., 5% carbon dioxide. Test compounds were then added at the required concentration for 30′. […] Concentration curves were prepared in MEM/10% FCS from compound stocks in DMSO and final DMSO concentration was 0.002% (v/v). Duplicate wells for each concentration point were prepared with a typical highest compound concentration of 20 μM and serial dilution 1:3. […] Non-specific binding sites were blocked by incubating wells for 30 min in PBS containing 5% (w/v) FBS 0.05% tween20. […] After washing further 3 times in PBS, cellular PAR immunoreactivity was assessed using the ArrayScan vTi instrument, with a Zeiss 10×0.5 N.A. objective, and applying the Cytotoxicity.V3 algorithm (Cellomics/Thermo Fisher) with a XF100 filter. At least 10 fields, corresponding to at least 900 cells, were read for each well.
The following formula is used: IC50=Bottom+(Top−Bottom)/(1+10^((Log EC50−X))); X is the logarithm of concentration. IC50 is the response; IC50 starts at Bottom and goes to Top with a sigmoid shape.

[2] = Pharmacokinetics and oral bioavailability in the mouse; type: in vivo; details: for F on AUC: 10 mg/kg, ratio of oral to IV dose-normalized plasma AUC; for clearance / Vd / AUC / half-life: male, Balb Nu/Nu, plasma, mean value; for clearance / Vd: 10 mg/kg intravenous bolus; for clearance: read-out: CL(IV bolus); for Vd: read-out: Vdss (IV bolus); for AUC / half-life: 10 mg/kg oral; for half-life: read-out: T½ (oral) (converted)
Protocol: The compounds were formulated in 10% tween 80/dextrose for intravenous bolus administration while oral administrations were performed using the compounds formulated in 0.5% methylcellulose. A single administration at the dose of 10 mg/kg was given and three male animals for each route were used. […] Plasma samples were prepared by plasma proteins precipitation adding 200 µl of methanol to 10 µl of plasma in a 96 well plate. […] The supernatant was considered as final extract and injected onto the LC-MS-MS system (HPLC system: Hewlett Packard 1100 series using Atlantis HILIC Silica 50*2.1 mm 5.0 μM analytical column; MS instrument: Perkin Elmer SCIEX API 2000 and ionization performed with Turbo Ion Spray in positive ion mode). Lower limit of quantification is 5.0 ng/ml, upper limit of quantification is 10000 ng/ml. […] Non-compartmental method (linear trapezoidal rule and linear regression analysis of natural log-transformed plasma concentrations vs. time data) was used. After intravenous dosing, C0 was set equal to C0.083, Absolute bioavailability (F) was calculated from the ratio of average oral to IV (intravenous) dose-normalized plasma AUC (area under curve) values.

[3] = tested on: Capan-1 human pancreatic cancer tumors; assay: In vivo efficacy as single agent, Capan-1 BRCA-2 mutated mouse model; details: oral; for Toxicity: body weight reduction and survival
Source text: Each group included seven animals. The treatment started one day after randomization.

[4] = tested on: Capan-1 human pancreatic cancer tumors; details: for T − C: delay to reach 1 g
Source text: Balb, athymic Nu/Nu male mice, from Harlan (Italy), were maintained in agreement with the European Communities Council Directive no. 86/609/EEC concerning the protection of animals used for experimental or other scientific purposes, in cages with paper filter cover, food and bedding sterilized and acidified water. Fragments of Capan-1 human pancreatic cancer tumors were implanted subcutaneously. Mice bearing a palpable tumor (100-200 mm^3) were selected and randomized into control and treated groups. Each group included seven animals. The treatment started one day after randomization. Compound of formula (I) was administered by oral route as a methocel suspension at the doses of 100 mg/kg daily or twice a day for the indicated times.
Compound (39) was administered by oral route at the dose of 100 mg/kg twice a day for ten consecutive days (days 1 to 10). […] Tumor growth and body weight were measured every 3 days. Tumor growth was assessed by caliper. The two diameters were recorded and the tumor weight was calculated according to the following formula: length (mm)×width^2/2. […] This delay (T−C value) was defined as the difference of time (in days) required for the treatment group (T) and the control group (C) tumors to reach a predetermined size (1 g). Toxicity was evaluated on the basis of body weight reduction and animal survival rate.

[5] = tested on: ovarian cancer patients with confirmed BRCA-1 mutations; details: preliminary phase I data; cited from earlier work
[6] = 100 mg/kg, days 1-20 once a day
[7] = 150 mg/kg, days 1-14 twice a day
[8] = temozolomide alone, oral 50 mg/kg once a day, days 3, 4, 5, 6 and 7
[9] = 100 mg/kg, days 1-10 twice a day
[10] = Compound (39) alone, oral 100 mg/kg twice a day, days 1 to 10

PARP-2 FL, sequence (Q9UGN5 whole entry): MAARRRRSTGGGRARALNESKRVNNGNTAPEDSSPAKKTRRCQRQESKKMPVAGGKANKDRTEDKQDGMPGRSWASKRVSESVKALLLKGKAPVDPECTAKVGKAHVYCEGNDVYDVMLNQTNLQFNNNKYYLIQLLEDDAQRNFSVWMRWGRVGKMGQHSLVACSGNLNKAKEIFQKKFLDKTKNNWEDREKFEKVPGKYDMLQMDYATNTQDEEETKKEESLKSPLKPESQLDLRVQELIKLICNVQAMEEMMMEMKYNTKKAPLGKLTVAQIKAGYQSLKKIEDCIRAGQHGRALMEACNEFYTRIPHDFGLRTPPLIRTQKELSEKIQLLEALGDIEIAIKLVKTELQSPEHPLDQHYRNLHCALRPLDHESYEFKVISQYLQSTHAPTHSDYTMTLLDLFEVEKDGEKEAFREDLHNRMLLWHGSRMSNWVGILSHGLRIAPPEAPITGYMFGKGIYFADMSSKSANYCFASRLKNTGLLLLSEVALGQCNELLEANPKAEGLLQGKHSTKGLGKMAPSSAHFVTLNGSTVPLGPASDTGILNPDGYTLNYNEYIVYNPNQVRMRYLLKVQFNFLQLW
PARP-1 FL, sequence (P09874 whole entry): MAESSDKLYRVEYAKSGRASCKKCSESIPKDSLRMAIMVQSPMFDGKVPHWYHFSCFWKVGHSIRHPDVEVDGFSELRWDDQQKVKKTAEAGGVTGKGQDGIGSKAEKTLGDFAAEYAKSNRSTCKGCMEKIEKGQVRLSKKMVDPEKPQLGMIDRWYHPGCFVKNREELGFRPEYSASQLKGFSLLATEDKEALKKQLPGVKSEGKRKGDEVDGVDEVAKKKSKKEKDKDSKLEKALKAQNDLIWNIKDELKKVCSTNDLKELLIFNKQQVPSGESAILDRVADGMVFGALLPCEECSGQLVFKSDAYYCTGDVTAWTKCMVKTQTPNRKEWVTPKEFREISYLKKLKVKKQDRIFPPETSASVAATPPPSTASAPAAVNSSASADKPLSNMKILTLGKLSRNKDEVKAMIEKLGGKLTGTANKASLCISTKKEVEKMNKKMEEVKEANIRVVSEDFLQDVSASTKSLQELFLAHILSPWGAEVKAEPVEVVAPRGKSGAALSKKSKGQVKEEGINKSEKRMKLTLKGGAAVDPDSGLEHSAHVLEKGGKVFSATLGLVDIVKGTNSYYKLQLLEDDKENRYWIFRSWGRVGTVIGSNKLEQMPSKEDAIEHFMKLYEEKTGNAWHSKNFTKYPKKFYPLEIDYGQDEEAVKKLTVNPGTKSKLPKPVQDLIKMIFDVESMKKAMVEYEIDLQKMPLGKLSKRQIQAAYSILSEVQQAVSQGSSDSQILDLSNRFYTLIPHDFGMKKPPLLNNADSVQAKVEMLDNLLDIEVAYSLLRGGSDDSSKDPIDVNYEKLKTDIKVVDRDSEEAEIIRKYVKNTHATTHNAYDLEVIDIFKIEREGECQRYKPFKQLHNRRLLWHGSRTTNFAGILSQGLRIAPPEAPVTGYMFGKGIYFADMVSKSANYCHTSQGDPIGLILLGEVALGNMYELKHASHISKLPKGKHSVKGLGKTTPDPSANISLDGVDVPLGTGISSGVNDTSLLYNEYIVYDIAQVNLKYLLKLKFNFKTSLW

| Kd (PARP-1 FL) [µM] | DC50 (PARP-1 FL) [µM] | Kd (PARP-2 FL) [µM] | DC50 (PARP-2 FL) [µM] | DC50 (PARP-3 FL) [µM] | IC50 [1] [µM] | Structure (SMILES) | F on AUC [2] [%] | clearance [2] [mL/min/kg] | Vd [2] [L/kg] | AUC [2] [µM·h] | half-life [2] [h] | other results |
| --- | --- | --- | --- | --- | --- | --- | --- | --- | --- | --- | --- | --- |
| < 0.01 | < 0.25 | 3.61 | 5.99 | 0.37 | 0.06 | COc1cccc(-c2[nH]c(=O)c3cc(F)ccc3c2OCCN)c1 [Compound 46, 4-(2-Amino-ethoxy)-7-fluoro-3-(3-methoxy-phenyl)-2H-isoquinolin-1-one hydrochloride] | – | – | – | – | – | – |
| < 0.03 | < 0.25 | 0.25 | 0.58 | 0.34 | 0.41 | O=c1[nH]c(-c2cccc(O)c2)c(OCCCN2CCCCC2)c2ccccc12 [Compound 33, 3-(3-Hydroxy-phenyl)-4-(3-piperidin-1-yl-propoxy)-2H-isoquinolin-1-one] | 24 | 176 | 2.9 | 0.64 | 1.11 | – |
| – | < 0.25 | – | > 10 | 1.11 | 0.4 | O=c1[nH]c(-c2ccccc2)c(OCCCNCc2ccccc2)c2ccc(F)cc12 [Compound 87, 4-[3-(benzylamino)propoxy]-7-fluoro-3-phenylisoquinolin-1(2H)-one] | – | – | – | – | – | – |
| < 0.03 | < 0.25 | 0.45 | 0.79 | 0.28 | 0.2 | NCCOc1c(-c2cccc(O)c2)[nH]c(=O)c2ccccc12 [Compound 32, 4-(2-Amino-ethoxy)-3-(3-hydroxy-phenyl)-2H-isoquinolin-1-one hydrochloride] | – | – | – | – | – | – |
| – | < 0.25 | – | 3.86 | 1.11 | 0.57 | CN(C)CCOc1c(-c2ccccc2)[nH]c(=O)c2cc(F)ccc12 [Compound 84, 4-[2-(dimethylamino)ethoxy]-7-fluoro-3-phenylisoquinolin-1(2H)-one] | – | – | – | – | – | – |
| < 0.03 | < 0.25 | 0.4 | 0.7 | 1.23 | 0.13 | O=c1[nH]c(-c2cccc(Cl)c2)c(OCCCN2CCCCC2)c2ccccc12 [Compound 44, 3-(3-Chloro-phenyl)-4-(3-piperidin-1-yl-propoxy)-2H-isoquinolin-1-one] | – | – | – | – | – | – |
| – | 1.59 | – | 5.85 | > 10 | 3.44 | CCN(CC)CCOc1c(-c2ccccc2)[nH]c(=O)c2cc(F)ccc12 [Compound 88, 4-[2-(diethylamino)ethoxy]-7-fluoro-3-phenylisoquinolin-1(2H)-one trifluoroacetate] | – | – | – | – | – | – |
| < 0.03 | < 0.25 | 0.33 | 0.77 | 0.55 | 0.25 | O=c1[nH]c(-c2ccc(O)cc2)c(OCCCN2CCCCC2)c2ccccc12 [Compound 27, 3-(4-Hydroxy-phenyl)-4-(3-piperidin-1-yl-propoxy)-2H-isoquinolin-1-one] | – | – | – | – | – | – |
| < 0.01 | < 0.25 | 0.33 | 0.68 | 0.35 | 0.23 | NCCOc1c(-c2ccc(O)cc2)[nH]c(=O)c2ccccc12 [Compound 26, 4-(2-Amino-ethoxy)-3-(4-hydroxy-phenyl)-2H-isoquinolin-1-one] | – | – | – | – | – | – |
| – | 0.4 | – | > 10 | 6.45 | 7.55 | CN1CCN(CCOc2c(-c3ccccc3)[nH]c(=O)c3cc(F)ccc23)CC1 [Compound 89, 7-fluoro-4-[2-(4-methylpiperazin-1-yl)ethoxy]-3-phenylisoquinolin-1(2H)-one trifluoroacetate] | – | – | – | – | – | – |
| – | – | – | – | – | – | Cn1nnc2c(C(N)=O)ncn2c1=O [temozolomide, reference compound] | – | – | – | – | – | Toxicity [4, 8]: 0/7; T − C [4, 8]: 3 days |
| < 0.01 | < 0.25 | 0.51 | 1.16 | 0.33 | 0.11 | Cl.NCCOc1c(-c2cccc(Cl)c2)[nH]c(=O)c2ccccc12 [Compound 48, 4-(2-Amino-ethoxy)-3-(3-chloro-phenyl)-2H-isoquinolin-1-one hydrochloride] | 27 | 59.9 | 4.1 | 2.39 | 1.11 | – |
| < 0.03 | 0.32 | – | – | 0.37 | 0.06 | COc1ccc(-c2[nH]c(=O)c3ccccc3c2OCCN)cc1.Cl [Compound 24, 4-(2-Amino-ethoxy)-3-(4-methoxy-phenyl)-2H-isoquinolin-1-one hydrochloride] | 50 | 41.1 | 3 | 6.97 | 2.71 | – |
| < 0.01 | < 0.25 | – | 0.97 | 0.2 | 0.09 | Cc1cccc2c(=O)[nH]c(-c3ccccc3)c(OCCN)c12 [Compound 49, 4-(2-Amino-ethoxy)-5-methyl-3-phenyl-2H-isoquinolin-1-one hydrochloride] | – | – | – | – | – | – |
| – | – | – | – | – | – | O=C(c1cc(Cc2n[nH]c(=O)c3ccccc23)ccc1F)N1CCN(C(=O)C2CC2)CC1 [AZD2281] | – | – | – | – | – | Partial responses [5]: 4 out of 10 |
| – | < 0.25 | – | 4.72 | 0.33 | 0.54 | NCCCOc1c(-c2ccccc2)[nH]c(=O)c2cc(F)ccc12 [Compound 86, 4-(3-aminopropoxy)-7-fluoro-3-phenylisoquinolin-1(2H)-one hydrochloride] | – | – | – | – | – | – |
| < 0.03 | < 0.25 | 0.12 | 0.42 | 0.25 | 0.28 | O=c1[nH]c(-c2cccc(O)c2)c(OCCCN2CCCCC2)c2ccc(F)cc12 [Compound 45, 7-Fluoro-3-(3-hydroxy-phenyl)-4-(3-piperidin-1-yl-propoxy)-2H-isoquinolin-1-one hydrochloride] | – | – | – | – | – | – |

| Structure (SMILES) | Kd (PARP-1 FL) [µM] | DC50 (PARP-1 FL) [µM] | Kd (PARP-2 FL) [µM] | DC50 (PARP-2 FL) [µM] | DC50 (PARP-3 FL) [µM] | IC50 [1] [µM] | F on AUC [2] [%] | clearance [2] [mL/min/kg] | Vd [2] [L/kg] | AUC [2] [µM·h] | half-life [2] [h] | other results |
| --- | --- | --- | --- | --- | --- | --- | --- | --- | --- | --- | --- | --- |
| COc1ccc(-c2[nH]c(=O)c3cc(F)ccc3c2OCCN)cc1.Cl [Compound 25, 4-(2-Amino-ethoxy)-7-fluoro-3-(4-methoxy-phenyl)-2H-isoquinolin-1-one hydrochloride] | < 0.01 | < 0.25 | 0.61 | 2.29 | 0.21 | 0.06 | 71 | 42.2 | 2.3 | 8.32 | 2.17 | Max TGI (%) [3, 6]: 18%; Toxicity [3, 6]: 0/7 |
| COc1cccc(-c2[nH]c(=O)c3ccccc3c2OCCN)c1.Cl [Compound 11, 4-(2-Amino-ethoxy)-3-(3-methoxy-phenyl)-2H-isoquinolin-1-one hydrochloride] | < 0.03 | < 0.25 | – | – | 0.35 | 0.18 | 64 | 120 | 2.6 | 2.94 | 1.01 | Max TGI (%) [3, 7]: 31%; Toxicity [3, 7]: 0/7 |
| Cl.NCCOc1c(-c2ccccc2)[nH]c(=O)c2cc(F)ccc12 [Compound 39, 4-(2-Amino-ethoxy)-7-fluoro-3-phenyl-2H-isoquinolin-1-one hydrochloride] | < 0.01 | < 0.25 | 4.38 | 3.32 | 0.28 | 0.06 | 72 | 37.9 | 1.7 | 11 | 1.06 | Max TGI (%) [3, 9]: 48%; Toxicity [3, 9]: 0/7; Toxicity [4, 10]: 0/7; T − C [4, 10]: 3 days; Interaction of the combination (T−C versus addition of single treatments) ([4]; compound (39) combined with temozolomide): strong synergism |
